Reference: patent US9745283B2, “Uracil derivatives as AXL and c-MET kinase inhibitors” (priority 2011, dated 2017)

Columns and labels:
[1] = molecular target: recombinant human baculovirus-expressed cMET (Homo sapiens (Human), UniProt P08581); assay: C-MET Kinase Assay (HTRF KinEASE); type: biochemical; conditions: average of two or more determinations; read-out: c-MET IC50
Summary of the method: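 HTRF KinEASE format with recombinant human baculovirus-expressed cMET at 8 ng/mL, biotinylated peptide at 0.1 μM and ATP at 0.02 μM. IC50 came from percent control activity versus log concentration, fitted by nonlinear regression to a variable-slope sigmoidal equation with bottom fixed at 0 and top at 100.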

[2] = molecular target: recombinant human baculovirus-expressed AXL (Homo sapiens (Human), UniProt P30530); assay: AXL Kinase Assay (HTRF KinEASE); type: biochemical; conditions: average of two or more determinations

| SMILES | IC50 [1] [µM] | IC50 [2] [µM] |
| --- | --- | --- |
| COc1ccc2c(Oc3ccc(NC(=O)c4nn(C(C)C)c(=O)n(-c5ccc(F)cc5)c4=O)cc3F)ccnc2c1 [Example 111, 4-(4-Fluorophenyl)-2-isopropyl-3,5-dioxo-2,3,4,5-tetrahydro-[1,2,4]triazine-6-carboxylic acid [3-fluoro-4-(7-methoxyquinolin-4-yloxy)-phenyl]-amide] | 0.01 to 0.1 | < 0.01 |
| COc1cc2nccc(Oc3ccc(NC(=O)c4cn(CCc5ccccc5)c(=O)n(-c5ccc(F)cc5)c4=O)cc3F)c2cc1OC [Example 64, 3-(4-Fluoro-phenyl)-2,4-dioxo-1-phenethyl-1,2,3,4-tetrahydro-pyrimidine-5-carboxylic acid [4-(6,7-dimethoxy-quinolin-4-yloxy)-3-fluoro-phenyl]-amide] | 0.01 to 0.1 | < 0.01 |
| COc1cc2nccc(Oc3ccc(NC(=O)c4cn(CC(C)C)c(=O)n(-c5ccc(F)cc5)c4=O)cc3F)c2cc1OC [Example 8, 3-(4-Fluorophenyl)-1-isobutyl-2,4-dioxo-1,2,3,4-tetrahydropyrimidine-5-carboxylic acid [4-(6,7-dimethoxyquinolin-4-yloxy)-3-fluorophenyl]-amide] | 0.01 to 0.1 | < 0.01 |
| COc1cc2nccc(Oc3ccc(NC(=O)c4cn(CCN5CCCC5)c(=O)n(-c5ccc(F)cc5)c4=O)cc3F)c2cc1OC [Example 26, 3-(4-Fluorophenyl)-2,4-dioxo-1-(2-pyrrolidin-1-yl-ethyl)-1,2,3,4-tetrahydropyrimidine-5-carboxylic acid [4-(6,7-dimethoxyquinolin-4-yloxy)-3-fluorophenyl]-amide] | 0.01 to 0.1 | < 0.01 |
| COc1cc2nccc(Oc3ccc(NC(=O)c4cn(C)c(=O)n(-c5ccc(F)cc5)c4=O)cc3F)c2cc1OC [Example 2, 3-(4-Fluorophenyl)-1-methyl-2,4-dioxo-1,2,3,4-tetrahydropyrimidine-5-carboxylic acid [4-(6,7-dimethoxyquinolin-4-yloxy)-3-fluoro-phenyl]-amide] | < 0.01 | < 0.01 |
| COc1cc2nccc(Oc3ccc(NC(=O)c4cn(CCn5ccnc5)c(=O)n(-c5ccc(F)cc5)c4=O)cc3F)c2cc1OC [Example 62, 3-(4-Fluoro-phenyl)-1-(2-imidazol-1-yl-ethyl)-2,4-dioxo-1,2,3,4-tetrahydro-pyrimidine-5-carboxylic acid [4-(6,7-dimethoxy-quinolin-4-yloxy)-3-fluoro-phenyl]-amide] | < 0.01 | < 0.01 |
| COc1cc2nccc(Oc3ccc(NC(=O)c4cn(CC(=O)N5CCOCC5)c(=O)n(-c5ccc(F)cc5)c4=O)cc3F)c2cc1OC [Example 67, 3-(4-Fluoro-phenyl)-1-(2-morpholin-4-yl-2-oxo-ethyl)-2,4-dioxo-1,2,3,4-tetrahydro-pyrimidine-5-carboxylic acid [4-(6,7-dimethoxy-quinolin-4-yloxy)-3-fluoro-phenyl]-amide] | 0.01 to 0.1 | < 0.01 |
| CC(C)n1nc(C(=O)Nc2ccc(Oc3ccnc4cc5c(cc34)OCCO5)c(F)c2)c(=O)n(-c2ccc(F)cc2)c1=O [Example 106, 4-(4-Fluorophenyl)-2-isopropyl-3,5-dioxo-2,3,4,5-tetrahydro-[1,2,4]triazine-6-carboxylic acid [4-(2,3-dihydro-[1,4]dioxino[2,3-g]quinolin-9-yloxy)-3-fluorophenyl]-amide] | 0.01 to 0.1 | < 0.01 |
| COc1cc2nccc(Oc3ccc(NC(=O)c4cn(CCO)c(=O)n(-c5ccc(F)cc5)c4=O)cc3F)c2cc1OC [Example 49, 3-(4-Fluorophenyl)-1-(2-hydroxyethyl)-2,4-dioxo-1,2,3,4-tetrahydropyrimidine-5-carboxylic acid [4-(6,7-dimethoxyquinolin-4-yloxy)-3-fluorophenyl]-amide] | < 0.01 | < 0.01 |
| COc1cc2nccc(Oc3ccc(NC(=O)c4c[nH]c(=O)n(-c5ccc(F)cc5)c4=O)cc3C)c2cc1OC [Example 149, 3-(4-Fluoro-phenyl)-2,4-dioxo-1,2,3,4-tetrahydro-pyrimidine-5-carboxylic acid [4-(6,7-dimethoxy-quinolin-4-yloxy)-3-methyl-phenyl]-amide] | < 0.01 | < 0.01 |
| COc1cc2nccc(Oc3ccc(NC(=O)c4cn(CCCOCc5ccccc5)c(=O)n(-c5ccc(F)cc5)c4=O)c(F)c3)c2cc1OC [Example 22, 1-(3-Benzyloxypropyl)-3-(4-fluorophenyl)-2,4-dioxo-1,2,3,4-tetrahydropyrimidine-5-carboxylic acid [4-(6,7-dimethoxyquinolin-4-yloxy)-2-fluorophenyl]-amide] | 0.01 to 0.1 | < 0.01 |
